# According to patent US20040009485A1, “Cellular arrays for the identification of altered gene expression” (priority 2002, published 2004):
# “And” between values parts separate entries of the source, which are not always exact repeats. Equal values may be shown once. Read-outs that look alike come from different tables or passages of the source.
# Columns and labels:
# [1] = test system: heat shock regulon gene fusions; assay: Stress response of heat shock regulon luxCDABE gene fusions (ethanol); type: cell-based, E. coli; conditions: for 3% Ethanol Response ratio: 40 minutes, LB, treated/untreated
# Method: To test the stress responses, one or two single colonies of each selected strain were used to inoculate 5.0 ml of LB medium containing 150 μg/ml of ampicillin. These cultures were grown overnight at 37° C. then diluted by adding 50 μl or 100 μl of the overnight culture into 10.0 ml of fresh LB medium (without ampicillin) and grown with agitation at 37° C. until the culture was in exponential phase with readings on a Klett-Summerson colorimeter containing the red filter of between 10 and 40. These actively growing cultures were immediately used to initiate a stress response experiment by adding 50 μl of cultures to 50 μl of LB medium containing various concentrations of chemical in the wells a 96 well luminometer plate. This division of the actively growing culture at the time of chemical addition ensured identical populations were present when the stress was imposed. Light production was measured in a Dynex ML3000 luminometer at 37° C. The dimensionless units of light production, relative light units (RLU), are obtained by comparison with the light reading from an internal light-emitting diode. The cycle mode of the ML3000 luminometer, similar to previous descriptions (Van Dyk et al., Appl. Environ. Microbiol. 60:1414-120) was used. […]
# [2] = test system: clpB-luxCDABE gene fusion; conditions: 38 min; for Response Ratio: 4% ethanol; for Light production in LB + 4% ethanol: 37° C.
# Method: Plasmid DNA was isolated from lux-a.pk043.d3, digested with restriction enzyme XmaI, and ligated with T4 DNA ligase. The ligation reaction was used to transform E. coli strain DPD1675 by electroporation. Transformants were selected by ampicillin resistance. […] Actively growing cultures at 37° C. in LB medium were treated with 4% ethanol arid light production was quantitated at 37° C. using a microplate luminometer (Dynex ML3000). Table 17 summarizes the average bioluminescence of duplicate samples at 38 min after treatment.
# SOS regulon gene fusions = assay: Stress response of SOS regulon luxCDABE gene fusions (nalidixic acid); type: cell-based, E. coli; conditions: SOS regulon gene fusions; 5, 4, or 3% (v/v) ethanol
# Method: (§1) To test the stress responses, one or two single colonies of each selected strain were used to inoculate 5.0 ml of LB medium containing 150 μg/ml of ampicillin. These cultures were grown overnight at 37° C. then diluted by adding 50 μl or 100 μl of the overnight culture into 10.0 ml of fresh LB medium (without ampicillin) and grown with agitation at 37° C. until the culture was in exponential phase with readings on a Klett-Summerson colorimeter containing the red filter of between 10 and 40. These actively growing cultures were immediately used to initiate a stress response experiment by adding 50 μl of cultures to 50 μl of LB medium containing various concentrations of chemical in the wells a 96 well luminometer plate. This division of the actively growing culture at the time of chemical addition ensured identical populations were present when the stress was imposed. Light production was measured in a Dynex ML3000 luminometer at 37° C. The dimensionless units of light production, relative light units (RLU), are obtained by comparison with the light reading from an internal light-emitting diode. The cycle mode of the ML3000 luminometer, similar to previous descriptions (Van Dyk et al., Appl. Environ. Microbiol. 60:1414-120) was used.
# The ability of these promoter-luxCDABE fusions to report activation of the SOS stress response was tested using nalidixic acid, a known, potent chemical inducer. The final concentrations of nalidixic acid were 1, 5, 25, and 125 μg/ml for all but strain DPD2293, which was tested at 80, 40, 20, 10, 5, 2.5, and 1.25 μg/ml.
# Specificity of responses was tested by measuring the effect of ethanol on these SOS regulon gene fusions.
# [3] = test system: ahpC-luxCDABE fusions in E. coli host strain DPD2228 (pcnB80); conditions: for H2O2 response ratio in pcnB- host: 0.002% hydrogen peroxide, 30 minutes, LB
# Method: as §1
# [4] = test system: OxyR regulon gene fusions (ahpC-luxCDABE); conditions: for H2O2 response ratio: ahpC fusion, 0.002% hydrogen peroxide, 30 minutes, LB
# Method: as §1
# To test if these strains would report on activation of the OxyR-controlled oxidative stress response, each was treated with hydrogen peroxide at 0.016, 0.008, 0.004, 0.002, 0.001, 0.0005, 0.00025%.
# [5] = test system: luxCDABE gene fusions in lexA+ host; assay: Mitomycin C and nalidixic acid responses in lexA+ host; type: cell-based, E. coli; conditions: for MitC Ratio, 2 hr 250 ng/ml: lexA+ host
# Method: (§2) In addition, the effect of a lexAind mutation was tested to determine if any of these were part of the SOS regulon. The expectation is that SOS regulon member will be induced by both nalidixic acid and mitomycin C in a manner that is dependent on lexA function (Walker, G. C., (1996) Escherichia coli and Salmonella: Cellular and Molecular Biology ASM Press). […] This is consistent with the observation of upregulation of the b1728 mRNA transcript upon mitomycin C treatment in a LexA dependent fashion (Fernández de Henestrosa et al. (2000). Mol. Microbiol. 35:1560-1572). Likewise, two Gene fusions, those to oraA and yigN were identified is new members of the SOS regulon (Table 16). […] Negative, non-DNA damage responsive gene fusions were also included (Table 16).
# [6] = test system: luxCDABE gene fusions in lexAind host; assay: Mitomycin C and nalidixic acid responses in lexAind host; type: cell-based, E. coli; conditions: for MitC Ratio, 2 hr 250 ng/ml: lexAind host
# Method: as §2
# [7] = test system: luxCDABE gene fusions of the Lux-A Collection; assay: Induction of Lux-A Collection gene fusions by MMC (and yebF fusion by nalidixic acid); type: cell-based, E. coli
# Method: The Lux-A Collection of reporter gene fusions was examined for presence of fusions to the genes in Table 11. […] Each of these was tested for induction by MMC at several doses over a time course of 100 minutes.
# As expected, the expression of the known SOS genes was elevated; however the expression of several was elevated less than 2-fold (Table 12) and as such were within a large group of 792 genes the expression of which was elevated by 20% or more. Most of these are likely due to artifacts in the array data rather than to actual biologically relevant responses. To test if strains carrying luxCDABE gene fusions would yield the expected positive result, the three gene fusions that were available in the Lux-A Collection of reporter gene fusions were tested for mitomycin C responses.
# In this case, a divergent promoter to the purT gene was present in the chromosomal fragment and strains containing the backward yebF fusion produced light. […] […] The orientation of the inserted segment to yield a fusion of yebF to the luxCDABE operon was confirmed by DNA sequence analysis.
# [8] = test system: SoxR/S regulon gene fusions; assay: Stress response of SoxR/S regulon luxCDABE gene fusions (methyl viologen); type: cell-based, E. coli; conditions: for Methyl viologen response ratio: 250 μg/ml, 120 minutes, LB, treated/untreated
# Method: Like the SOS and heat shock regulon fusions, these had basal light production greater than the promoterless parental plasmid indicating the presence of a promoter. Responsiveness of four of these strains to a known inducer of the SoxR/S regulon, methyl viologen, was tested at 1000, 500, 250, 125, 62, 31 and 16 μg/ml. […] Table 8 gives the response ratio for 250 μg/ml at 120 minutes of treatment for the four tested strains. Here again, the biologically appropriate response was observed.
# [9] = lux-a.pk054.c3 (DPD2243), clpB fusion
# [10] = 1pxA 1pxB rnhB dnaE fusion (lux-a.pk061.c3)
# [11] = dinG ybiB fusion (lux-a.pk0024.f5)
# [12] = lacZ fusion (65.d4), negative control
# [13] = yciG fusion (lux-a.pk006.b4), negative control
smiles,measurement,setting,value
"CCO [Ethanol, ethanol]",3% Ethanol Response ratio,"[1]; clpB fusion, DPD2243 (lux-a.pk054.c3)",4.7
same,bioluminescence compared with untreated culture,"[1]; each of the six heat shock fusion strains, at least two of 5, 4, 3, 2 (v/v)% ethanol",increased bioluminescence
same,3% Ethanol Response ratio,"[1]; grpE fusion, DPD2241 (lux-a.pk057.h1)",5.2
same,3% Ethanol Response ratio,"[1]; lon fusion, DPD2242 (lux-a.pk021.g11)",5.6
same,3% Ethanol Response ratio,"[1]; rfaDFCL fusion, DPD2244 (lux-a.pk040.e4)",1.4
same,3% Ethanol Response ratio,"[1]; rpoD fusion, DPD2246 (lux-a.pk089.e7)",2.4
same,Response Ratio,[2]; Inverted lux-a.pk043.d3 (two transformants),6.5 and 5.5
same,Light production in LB + 4% ethanol,[2]; lux-a.pk043.d3 (clpB promoter not operably linked),0.0025 RLU
same,Response Ratio,[2]; [9],9.4
same,Light production in LB + 4% ethanol,[2]; [9],13.00 RLU
same,bioluminescence of SOS regulon gene fusions (specificity),SOS regulon gene fusions,little to no increased biolumninescence
"OO [H2O2, hydrogen peroxide]",induction of bioluminescence,"[3]; both ahpC-luxCDABE strains in pcnB- host, each of seven conc 0.004-0.00006%",dramatically induced increased bioluminescence
same,H2O2 response ratio in pcnB- host,[3]; plasmid of DPD2283 (lux-a.pk051.d5) in DPD2228,16.5
same,H2O2 response ratio in pcnB- host,[3]; plasmid of DPD2284 (lux-a.pk051.e3) in DPD2228,15.3
same,H2O2 response ratio,[4]; DPD2283 (lux-a.pk051.d5),1.3
same,H2O2 response ratio,[4]; DPD2284 (lux-a.pk051.e3),1.6
same,H2O2 response ratio,[4]; DPD2285 (lux-a.pk03.d6),1.2
same,induction of bioluminescence,"[4]; three ahpC-luxCDABE strains, 0.016-0.00025% hydrogen peroxide",minimally induced
"CO[C@@]12[C@H](COC(N)=O)C3=C(C(=O)C(C)=C(N)C3=O)N1C[C@@H]1N[C@@H]12 [MMC, mitomycin C]","MitC Ratio, 2 hr 250 ng/ml",[5]; [10],1.06
same,"MitC Ratio, 2 hr 250 ng/ml",[5]; b1728 fusion (lux-a.pk033.c5),8.97
same,"MitC Ratio, 2 hr 250 ng/ml",[5]; b1936 fusion (lux-a.pk0019.g1),1.22
same,"MitC Ratio, 2 hr 250 ng/ml",[5]; [11],5.01
same,"MitC Ratio, 2 hr 250 ng/ml",[5]; fusion (lux-a.pk0015.d6),1.12
same,"MitC Ratio, 2 hr 250 ng/ml",[5]; [12],0.80
same,induction of b1728 promoter-luxCDABE fusion,[5]; lexA+ host (FIG. 9),clearly induced
same,"MitC Ratio, 2 hr 250 ng/ml",[5]; oraA fusion (lux-a.pk058.f5),15.27
same,"MitC Ratio, 2 hr 250 ng/ml",[5]; yaaF fusion (lux-a.pk031.e7),1.02
same,"MitC Ratio, 2 hr 250 ng/ml",[5]; [13],0.56
same,"MitC Ratio, 2 hr 250 ng/ml",[5]; yigN fusion (lux-a.pk046.f11),9.84
same,"MitC Ratio, 2 hr 250 ng/ml",[6]; [10],1.29
same,"MitC Ratio, 2 hr 250 ng/ml",[6]; b1728 fusion (lux-a.pk033.c5),0.90
same,"MitC Ratio, 2 hr 250 ng/ml",[6]; b1936 fusion (lux-a.pk0019.g1),2.46
same,"MitC Ratio, 2 hr 250 ng/ml",[6]; [11],1.15
same,"MitC Ratio, 2 hr 250 ng/ml",[6]; fusion (lux-a.pk0015.d6),1.73
same,"MitC Ratio, 2 hr 250 ng/ml",[6]; [12],1.24
same,induction of b1728 promoter-luxCDABE fusion,[6]; lexAind host strain (FIG. 9),not induced
same,"MitC Ratio, 2 hr 250 ng/ml",[6]; oraA fusion (lux-a.pk058.f5),1.21
same,"MitC Ratio, 2 hr 250 ng/ml",[6]; yaaF fusion (lux-a.pk031.e7),0.99
same,"MitC Ratio, 2 hr 250 ng/ml",[6]; [13],0.61
same,"MitC Ratio, 2 hr 250 ng/ml",[6]; yigN fusion (lux-a.pk046.f11),0.93
same,Induction of Fusion,"[7]; b1847 (yebF)-luxCDABE fusion (when inverted), MMC",YES
same,Induction of Fusion,"[7]; b1847 (yebF)-luxCDABE fusion (when inverted), MMC, listed as mitomycin C",induction by mitomycin C was demonstrated
same,Induction of Fusion,"[7]; dinB (dinP)-luxCDABE fusion, several doses of MMC, time course of 100 minutes",YES
same,Induction of Fusion,"[7]; dinF-luxCDABE fusion, MMC",YES
same,Induction of Fusion,"[7]; dinG-luxCDABE fusion, MMC",YES
same,Induction of Fusion,"[7]; recA-luxCDABE fusion, several doses of MMC, time course of 100 minutes",YES
same,Induction of Fusion,"[7]; ruvA-luxCDABE fusion, several doses of MMC, time course of 100 minutes",YES
same,Induction of Fusion,"[7]; uvrA-luxCDABE fusion, several doses of MMC, time course of 100 minutes",YES
same,Induction of Fusion,"[7]; uvrD-luxCDABE fusion, MMC",YES
"C[n+]1ccc(-c2cc[n+](C)cc2)cc1 [Methyl viologen, methyl viologen]",bioluminescence compared with untreated culture,"[8]; each of four SoxR/S fusion strains, each of 1000, 500, 250, 125, 62, 31 and 16 μg/ml",induced increased bioluminescence
same,Methyl viologen response ratio,"[8]; inaA fusion, DPD2087 (lux-a.pk014.a9)",9.0
same,Methyl viologen response ratio,"[8]; poxB fusion, DPD3509 (lux-a.pk071.all)",15.0
same,Methyl viologen response ratio,"[8]; ribA fusion, DPD2286 (lux-a.pk078.d2)",4.7
same,Methyl viologen response ratio,"[8]; zwf fusion, DPD2272 (lux-a.pk082.g7)",3.6
